Drawing on patent US12552826B2, “PRMT5 inhibitors” (Merck Sharp & Dohme LLC, priority 2018, dated 2026), this text covers EC50 for 25 compounds.

T1 sequence (O14744 whole entry): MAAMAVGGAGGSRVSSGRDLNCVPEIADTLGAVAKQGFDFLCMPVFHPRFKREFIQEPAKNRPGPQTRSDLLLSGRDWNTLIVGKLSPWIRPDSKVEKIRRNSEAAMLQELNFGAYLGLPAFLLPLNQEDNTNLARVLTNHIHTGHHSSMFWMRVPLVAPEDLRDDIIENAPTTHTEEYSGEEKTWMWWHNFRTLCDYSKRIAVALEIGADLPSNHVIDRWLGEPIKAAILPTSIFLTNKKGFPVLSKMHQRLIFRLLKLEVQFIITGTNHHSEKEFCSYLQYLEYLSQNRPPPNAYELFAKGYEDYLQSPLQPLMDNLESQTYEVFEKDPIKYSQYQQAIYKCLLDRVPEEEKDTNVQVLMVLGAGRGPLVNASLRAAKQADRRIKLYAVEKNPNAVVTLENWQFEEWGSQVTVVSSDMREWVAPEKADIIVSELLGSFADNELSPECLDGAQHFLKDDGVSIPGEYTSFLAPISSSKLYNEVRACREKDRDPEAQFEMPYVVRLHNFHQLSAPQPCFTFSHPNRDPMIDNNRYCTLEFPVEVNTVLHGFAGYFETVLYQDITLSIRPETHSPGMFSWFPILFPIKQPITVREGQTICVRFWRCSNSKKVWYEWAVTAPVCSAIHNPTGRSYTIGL
T1 sequence (Q9BQA1 whole entry partner): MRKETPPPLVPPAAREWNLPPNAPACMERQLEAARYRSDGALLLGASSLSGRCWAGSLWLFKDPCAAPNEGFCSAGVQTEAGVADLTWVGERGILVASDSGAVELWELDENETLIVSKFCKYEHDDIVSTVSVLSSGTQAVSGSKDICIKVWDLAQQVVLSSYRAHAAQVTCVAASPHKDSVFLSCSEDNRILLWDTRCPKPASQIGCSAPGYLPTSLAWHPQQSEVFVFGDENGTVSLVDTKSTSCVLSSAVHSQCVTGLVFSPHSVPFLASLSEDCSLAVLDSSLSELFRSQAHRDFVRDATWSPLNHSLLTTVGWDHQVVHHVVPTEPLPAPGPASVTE

This assay concerns the target T1, PRMT5 (Homo sapiens, UniProt O14744).
T1 construct: endogenous in cells; host or cells: MCF-7
Put plainly: PRMT5 Cell Target Engagement (TE) Assay. It counts as cell-based. The settings on record: MCF-7 cells, 3 days treatment, nuclear SDMA by high content imaging. The source says: The PRMT5 TE assay is a biomarker assay for identifying compounds that inhibit symmetric dimethylation of arginine (SDMA) of PRMT5 substrates. The following substrates have been reported for PRMT5: Histone H2A and H4 R3, Histone H3 R2, Histone H3 R8, spliceosome Sm proteins, ribosomal protein RPS10, p53, FEN1, nucleoplasmin, nucleolin, EGFR and EBNA. The assay will focus on detecting symmetrically dimethylated nuclear proteins using high content imaging technology. Detection of the expression of symmetrically dimethylated nuclear proteins is through a mixture of primary rabbit monoclonal antibodies to SDMA (CST 13222), which in turn recognized by an Alexafluor 488 dye-conjugated anti-rabbit IgG secondary antibody. The IN Cell Analyzer 2200 or Opera-Phenix measures nuclear Alexafluor 488 fluorescent dye intensity that is directly related to the level of expression of symmetrically dimethylated nuclear proteins at the single cell level. Nuclear AF488 dye intensities are compared to the mean value for DMSO treated cells (MIN) to report percent of inhibition for each compound-treated well.
In this assay, the cell potency (EC50) of each compound was determined from a ten point (1:3 serial dilution; top compound concentration of 10000 nM) titration curve using the following outlined procedure. Each well of a BD falcon collagen coated black/clear bottom 384-well plate was seeded with 4000 MCF-7 cells in 30 μl media and allowed to attach for 5 hours. Media is ATCC-formulated Eagle's Minimum Essential Medium, Catalog No. 30-2003. The following components were added to the base medium: 0.01 mg/mL human recombinant insulin; fetal bovine serum to a final concentration of 10%. Additional 30 μl of media containing 2× compounds were added to each well. Cells were treated for 3 days in 37° C. CO2 incubator. On day 3, cells were fixed with Cytofix, permeabilized with 0.4% Triton-X-100/Cytofix, and washed with D-PBS without Ca/Mg. Cells were blocked with Licor Odessey blocking reagent for 1 hour at room temperature, followed by incubation with anti-SDMA (1:1000) antibody at 4° C. overnight. 1° antibody was removed, followed by three washings with DPBS without Ca/Mg and 0.05% Tween20. Hoechst (5 μg/mL), Cell Mask deep stain (1:2000) and Alexa488-conjugated goat anti-rabbit IgG (2 μg/mL) was added for 1 hour at room temperature. A final washing step (three washes) was performed before sealing plate for imaging on In Cell Analyzer 2200 or Opera-Phenix. Images from analyzer were uploaded to Columbus for image analysis. IC50 values were determined by 4 parameters robust fit of percent fluorescence units vs. (Log10) compound concentrations.
`C[C@@]1(O)[C@@H]([C@H](O)c2cc(F)c(F)c(C(F)F)c2)O[C@@H](n2ccc3c(N)ncnc32)[C@@H]1O` [Example 64, 7-{(5R)-5-C-[3-(difluoromethyl)-4,5-difluorophenyl]-3-C-methyl-beta-D-ribofuranosyl}-7H-pyrrolo[2,3-d]pyrimidin-4-amine] gave an EC50 of 219 nM.

Regarding `C[C@@]1(O)[C@@H]([C@H](O)c2cc(F)cc(F)c2F)O[C@@H](n2ccc3c(N)ncnc32)[C@@H]1O` [Example 52, 7-[(5R)-3-C-methyl-5-C-(2,3,5-trifluorophenyl)-beta-D-ribofuranosyl]-7H-pyrrolo[2,3-d]pyrimidin-4-amine], the EC50 was found to be 141 nM.

For `C[C@H](c1cc(F)cc(C(F)F)c1)[C@H]1O[C@@H](n2ccc3c(N)ncnc32)[C@H](O)[C@]1(C)O` (single isomer, unassigned) [Example 84], the response was half-maximal at 253 nM (EC50).

With `C[C@@]1(O)[C@@H]([C@@H](O)c2cc(Cl)cc(C(F)(F)F)c2)O[C@@H](n2ccc3c(N)ncnc32)[C@@H]1O` [Example 61, 7-{(5S)-5-C-[3-chloro-5-(trifluoromethyl)phenyl]-3-C-methyl-beta-D-ribofuranosyl}-7H-pyrrolo[2,3-d]pyrimidin-4-amine], the EC50 is above 10000 nM.

`C[C@]1(O)[C@@H](O)[C@H](n2ccc3c(N)ncnc32)O[C@@H]1[C@](C)(O)c1ccnc(C(F)F)c1` [Example 80, 7-{6-deoxy-5-C-[2-(difluoromethyl)pyridin-4-yl]-3-C-methyl-alpha-L-talofuranosyl}-7H-pyrrolo[2,3-d]pyrimidin-4-amine] returned an EC50 of 360 nM.

Consider `C[C@@]1(O)[C@@H]([C@@H](O)c2cc(F)c(F)c(F)c2)O[C@@H](n2ccc3c(N)ncnc32)[C@@H]1O` [Example 35, 7-[(5S)-3-C-methyl-5-C-(3,4,5-trifluorophenyl)-beta-D-ribofuranosyl]-7H-pyrrolo[2,3-d]pyrimidin-4-amine], for which the EC50 was above 10000 nM.

The compound `C[C@@]1(O)[C@@H]([C@H](O)c2cccc(Cl)c2F)O[C@@H](n2ccc3c(N)ncnc32)[C@@H]1O` [Example 46, 7-[(5R)-5-C-(3-chloro-2-fluorophenyl)-3-C-methyl-beta-D-ribofuranosyl]-7H-pyrrolo[2,3-d]pyrimidin-4-amine] gave a concentration for a half-maximal effect (EC50) of 407 nM.

Consider `Cc1ncnc2c1ccn2[C@@H]1O[C@H]([C@@H](O)c2cc(C(F)F)c(F)c3c2CNCC3)[C@@](C)(O)[C@H]1O` (single isomer, unassigned) [Example 90], for which the EC50 amounted to 7.4 nM. Compared with the last compound, the EC50 is about 55-fold lower.

In turn, `C[C@@]1(O)[C@@H]([C@@H](O)c2cccc(C(F)F)c2)O[C@@H](n2ccc3c(N)ncnc32)[C@@H]1O` [Example 57, 7-{(5S)-5-C-[3-(difluoromethyl)phenyl]-3-C-methyl-beta-D-ribofuranosyl}-7H-pyrrolo[2,3-d]pyrimidin-4-amine] had an EC50 above 10000 nM.

In turn, `C[C@@]1(O)[C@@H]([C@H](O)c2cc(C(F)F)ccn2)O[C@@H](n2ccc3c(N)ncnc32)[C@@H]1O` [Example 72, 7-{(5R)-5-C-[4-(difluoromethyl)pyridin-2-yl]-3-C-methyl-beta-D-ribofuranosyl}-7H-pyrrolo[2,3-d]pyrimidin-4-amine] registered an EC50 of 2060 nM. That is a single-digit micromolar value.

In turn, `C[C@@]1(O)[C@@H]([C@H](O)c2cccc(F)c2)O[C@@H](n2ccc3c(N)ncnc32)[C@@H]1O` [Example 20, 7-[(5R)-5-C-(3-fluorophenyl)-3-C-methyl-beta-D-ribofuranosyl]-7H-pyrrolo[2,3-d]pyrimidin-4-amine] came in with an EC50 of 141 nM.

`C[C@@]1(O)[C@@H]([C@H](O)c2cc(F)c(F)c(F)c2)O[C@@H](n2ccc3c(N)ncnc32)[C@@H]1O` [Example 34, 7-[(5R)-3-C-methyl-5-C-(3,4,5-trifluorophenyl)-beta-D-ribofuranosyl]-7H-pyrrolo[2,3-d]pyrimidin-4-amine] showed an EC50 of 227 nM. This EC50 lies about 1.6-fold higher than the previous one.

`C[C@@]1(O)[C@@H]([C@H](O)c2ccccc2)O[C@@H](n2ccc3c(N)ncnc32)[C@@H]1O` [Example 11, 7-[(5R)-3-C-methyl-5-C-phenyl-beta-D-ribofuranosyl]-7H-pyrrolo[2,3-d]pyrimidin-4-amine] gave an EC50 of 202 nM.

`C[C@]1(O)[C@@H](O)[C@H](n2ccc3c(N)ncnc32)O[C@@H]1[C@](C)(O)c1cncc(C(F)F)c1` [Example 77, 7-{6-deoxy-5-C-[5-(difluoromethyl)pyridin-3-yl]-3-C-methyl-alpha-L-talofuranosyl}-7H-pyrrolo[2,3-d]pyrimidin-4-amine] gave an EC50 of 1330 nM.

`Cc1ccc([C@H](O)[C@H]2O[C@@H](n3ccc4c(N)ncnc43)[C@H](O)[C@]2(C)O)cc1` [Example 31, 7-[(5S)-3-C-methyl-5-C-(4-methylphenyl)-beta-D-ribofuranosyl]-7H-pyrrolo[2,3-d]pyrimidin-4-amine]: the EC50 was above 10000 nM.

Turning to `C[C@@]1(O)[C@@H]([C@H](O)c2cc(F)cc(C(F)F)c2F)O[C@@H](n2ccc3c(N)ncnc32)[C@@H]1O` [Example 6, (2R,3S,4R,5R)-5-(4-amino-7H-pyrrolo[2,3-d]pyrimidin-7-yl)-2-((R)-(3-(difluoromethyl)-2,5-difluorophenyl)(hydroxy)methyl)-3-methyltetrahydrofuran-3,4-diol], the 50% effective concentration (EC50) came to 6.8 nM. This lies in the single-digit nanomolar range.

`C[C@@]1(O)[C@@H]([C@H](O)c2ccc(Cl)cc2F)O[C@@H](n2ccc3c(N)ncnc32)[C@@H]1O` [Example 42, 7-[(5R)-5-C-(4-chloro-2-fluorophenyl)-3-C-methyl-beta-D-ribofuranosyl]-7H-pyrrolo[2,3-d]pyrimidin-4-amine] yielded an EC50 of 1820 nM.

As to `C[C@@]1(O)[C@@H]([C@@H](O)c2cccc(F)c2F)O[C@@H](n2ccc3c(N)ncnc32)[C@@H]1O` [Example 45, 7-[(5S)-5-C-(2,3-difluorophenyl)-3-C-methyl-beta-D-ribofuranosyl]-7H-pyrrolo[2,3-d]pyrimidin-4-amine], the EC50 is above 10000 nM.

For `C[C@@]1(O)[C@@H]([C@H](O)c2cccc(C(F)F)c2)O[C@@H](n2ccc3c(N)ncnc32)[C@@H]1O` [Example 56, 7-{(5R)-5-C-[3-(difluoromethyl)phenyl]-3-C-methyl-beta-D-ribofuranosyl}-7H-pyrrolo[2,3-d]pyrimidin-4-amine], the EC50 stood at 32 nM.

Regarding `C[C@@]1(O)[C@@H]([C@@H](O)c2cc(F)cc(C(F)(F)F)c2)O[C@@H](n2ccc3c(N)ncnc32)[C@@H]1O` [Example 59, 7-{(5S)-5-C-[3-fluoro-5-(trifluoromethyl)phenyl]-3-C-methyl-beta-D-ribofuranosyl}-7H-pyrrolo[2,3-d]pyrimidin-4-amine], the EC50 was above 10000 nM.

`C[C@@]1(O)[C@@H]([C@H](O)c2cccc(C(F)(F)F)c2)O[C@@H](n2ccc3c(N)ncnc32)[C@@H]1O` [Example 54, 7-{(5R)-3-C-methyl-5-C-[3-(trifluoromethyl)phenyl]-beta-D-ribofuranosyl}-7H-pyrrolo[2,3-d]pyrimidin-4-amine]: the EC50 was determined as 391 nM.

`C[C@@]1(O)[C@@H]([C@@H](O)c2ccc(F)c(F)c2F)O[C@@H](n2ccc3c(N)ncnc32)[C@@H]1O` [Example 51, 7-[(5S)-3-C-methyl-5-C-(2,3,4-trifluorophenyl)-beta-D-ribofuranosyl]-7H-pyrrolo[2,3-d]pyrimidin-4-amine] had an EC50 above 10000 nM.

On to `C[C@@]1(O)[C@@H]([C@@H](O)c2cc(F)cc(F)c2F)O[C@@H](n2ccc3c(N)ncnc32)[C@@H]1O` [Example 53, 7-[(5S)-3-C-methyl-5-C-(2,3,5-trifluorophenyl)-beta-D-ribofuranosyl]-7H-pyrrolo[2,3-d]pyrimidin-4-amine], for which the midpoint of the response, the EC50, lay at 8960 nM. This counts as single-digit micromolar.

Compound `Cc1ncnc2c1ccn2[C@@H]1O[C@H]([C@@H](C)c2cccc3c2CNCC3)[C@@](C)(O)[C@H]1O` [Example 87, (2R,3S,4R,5R)-3-methyl-5-(4-methyl-7H-pyrrolo[2,3-d]pyrimidin-7-yl)-2-((S)-1-(1,2,3,4-tetrahydroisoquinolin-8-yl)ethyl)tetrahydrofuran-3,4-diol] registered an EC50 of 65 nM.

The compound `C[C@@]1(O)[C@@H]([C@@H](O)c2cc(C(F)F)c(F)c3c2CNCC3)O[C@@H](n2ccc3c(N)ncnc32)[C@@H]1O` [Example 9, (2R,3S,4R,5R)-5-(4-amino-7H-pyrrolo[2,3-d]pyrimidin-7-yl)-2-((S)-(6-(difluoromethyl)-5-fluoro-1,2,3,4-tetrahydroisoquinolin-8-yl)(hydroxy)methyl)-3-methyltetrahydrofuran-3,4-diol] gave an EC50 of 157 nM.

Usually EC50 stands for the concentration at which the effect is half-maximal.
